In ChEMBL document CHEMBL1149696, “Synthesis and antibacterial activity of C11, C12-cyclic urea analogues of ketolides” (2007):
≈ marks a conversion by molar mass, not a printed value.

Tests used:
Assay type in all cases: functional
[1] = system: Streptococcus pneumoniae; test: Antibacterial activity against erm containing Streptococcus pneumoniae 1095
[2] = system: Streptococcus pneumoniae; test: Antibacterial activity against mef containing Streptococcus pneumoniae 1175
[3] = system: Haemophilus influenzae; test: Antibacterial activity against Haemophilus influenzae 1100
[4] = system: Staphylococcus aureus; test: Antibacterial activity against erm containing Staphylococcus aureus 1117
[5] = system: Streptococcus pyogenes; test: Antibacterial activity against erythromycin susceptible Streptococcus pyogenes 203
[6] = system: Streptococcus pyogenes; test: Antibacterial activity against erm containing Streptococcus pyogenes 1079
[7] = system: Staphylococcus aureus; test: Antibacterial activity against erythromycin susceptible Staphylococcus aureus 0052
[8] = system: Streptococcus pneumoniae; test: Antibacterial activity against erythromycin susceptible Streptococcus pneumoniae 1016
[9] = system: Staphylococcus aureus; test: Antibacterial activity against erm containing Staphylococcus aureus 1095
[10] = system: Staphylococcus aureus; test: Antibacterial activity against erythromycin susceptible Staphylococcus aureus 1146
[11] = system: Haemophilus influenzae; test: Antibacterial activity against Haemophilus influenzae 1218

| Compound | MIC [1] | MIC [2] | MIC [3] | MIC [4] | MIC [5] | MIC [6] | MIC [7] | MIC [8] | MIC [9] | MIC [10] | MIC [11] |
| --- | --- | --- | --- | --- | --- | --- | --- | --- | --- | --- | --- |
| C/C=C/CN1C(=O)N(CCCCn2cnc(-c3cccnc3)c2)[C@@H]2[C@@H](C)C(=O)[C@H](C)C[C@](C)(OC)[C@H](O[C@@H]3O[C@H](C)C[C@H](N(C)C)[C@H]3O)[C@@H](C)C(=O)[C@](C)(F)C(=O)O[C@H](CC)[C@]21C | 0.1 µg/mL (≈ 0.113 µM) | 0.39 µg/mL (≈ 0.442 µM) | 0.25 µg/mL (≈ 0.283 µM) | 100 µg/mL (≈ 113 µM) | 0.049 µg/mL (≈ 0.0555 µM) | 32 µg/mL (≈ 36.2 µM) | 0.098 µg/mL (≈ 0.111 µM) | 0.05 µg/mL (≈ 0.0566 µM) | – | – | – |
| CC[C@H]1OC(=O)[C@H](C)C(=O)[C@H](C)[C@@H](O[C@@H]2O[C@H](C)C[C@H](N(C)C)[C@H]2O)[C@@](C)(OC)C[C@@H](C)C(=O)[C@H](C)[C@H]2N(C/C=C/Cn3cnc4cccnc43)C(=O)N[C@]12C | 0.063 µg/mL (≈ 0.0805 µM) | 1 µg/mL (≈ 1.28 µM) | – | – | 0.063 µg/mL (≈ 0.0805 µM) | 16 µg/mL (≈ 20.4 µM) | – | 0.063 µg/mL (≈ 0.0805 µM) | 64 µg/mL (≈ 81.7 µM) | 0.13 µg/mL (≈ 0.166 µM) | 1 µg/mL (≈ 1.28 µM) |
| CC[C@H]1OC(=O)[C@@](C)(F)C(=O)[C@H](C)[C@@H](O[C@@H]2O[C@H](C)C[C@H](N(C)C)[C@H]2O)[C@@](C)(OC)C[C@@H](C)C(=O)[C@H](C)[C@H]2N(C/C=C/Cn3cnc(-c4cccnc4)c3)C(=O)N[C@]12C | 0.063 µg/mL (≈ 0.0762 µM) | 0.25 µg/mL (≈ 0.302 µM) | – | – | 0.063 µg/mL (≈ 0.0762 µM) | 4 µg/mL (≈ 4.84 µM) | – | 0.063 µg/mL (≈ 0.0762 µM) | 64 µg/mL (≈ 77.4 µM) | 0.063 µg/mL (≈ 0.0762 µM) | 0.5 µg/mL (≈ 0.605 µM) |
| CC[C@H]1OC(=O)[C@@](C)(F)C(=O)[C@H](C)[C@@H](O[C@@H]2O[C@H](C)C[C@H](N(C)C)[C@H]2O)[C@@](C)(OC)C[C@@H](C)C(=O)[C@H](C)[C@H]2N(C/C=C/Cn3cnc(-c4cccnc4)c3)C(=O)N(C)[C@]12C | 0.063 µg/mL (≈ 0.0749 µM) | 0.063 µg/mL (≈ 0.0749 µM) | – | – | 0.063 µg/mL (≈ 0.0749 µM) | 4 µg/mL (≈ 4.76 µM) | – | 0.063 µg/mL (≈ 0.0749 µM) | 64 µg/mL (≈ 76.1 µM) | 0.063 µg/mL (≈ 0.0749 µM) | 1 µg/mL (≈ 1.19 µM) |
| CC/C=C/CN1C(=O)N(CCCCn2cnc(-c3cccnc3)c2)[C@@H]2[C@@H](C)C(=O)[C@H](C)C[C@](C)(OC)[C@H](O[C@@H]3O[C@H](C)C[C@H](N(C)C)[C@H]3O)[C@@H](C)C(=O)[C@](C)(F)C(=O)O[C@H](CC)[C@]21C | 0.1 µg/mL (≈ 0.111 µM) | 0.78 µg/mL (≈ 0.869 µM) | 0.5 µg/mL (≈ 0.557 µM) | 100 µg/mL (≈ 111 µM) | 0.098 µg/mL (≈ 0.109 µM) | 64 µg/mL (≈ 71.3 µM) | 0.098 µg/mL (≈ 0.109 µM) | 0.05 µg/mL (≈ 0.0557 µM) | – | – | – |
| CC[C@H]1OC(=O)[C@@](C)(F)C(=O)[C@H](C)[C@@H](O[C@@H]2O[C@H](C)C[C@H](N(C)C)[C@H]2O)[C@@](C)(OC)C[C@@H](C)C(=O)[C@H](C)[C@H]2N(C/C=C/Cn3cnc4cccnc43)C(=O)N(C)[C@]12C | 0.063 µg/mL (≈ 0.0773 µM) | 0.13 µg/mL (≈ 0.16 µM) | – | – | 0.063 µg/mL (≈ 0.0773 µM) | 2 µg/mL (≈ 2.45 µM) | – | 0.063 µg/mL (≈ 0.0773 µM) | 64 µg/mL (≈ 78.5 µM) | 0.063 µg/mL (≈ 0.0773 µM) | 0.25 µg/mL (≈ 0.307 µM) |
| CC[C@H]1OC(=O)[C@H](C)C(=O)[C@H](C)[C@@H](O[C@@H]2O[C@H](C)C[C@H](N(C)C)[C@H]2O)[C@](C)(OC)C[C@@H](C)C(=O)[C@H](C)[C@H]2N(CCCCn3cnc(-c4cccnc4)c3)C(=O)O[C@]12C [TELITHROMYCIN] | 0.05 µg/mL (≈ 0.0616 µM) | 0.13 µg/mL (≈ 0.16 µM) | 0.5 µg/mL (≈ 0.616 µM) | 100 µg/mL (≈ 123 µM) | 0.012 µg/mL (≈ 0.0148 µM) | 32 µg/mL (≈ 39.4 µM) | 0.049 µg/mL (≈ 0.0603 µM) | 0.013 µg/mL (≈ 0.016 µM) | 64 µg/mL (≈ 78.8 µM) | 0.063 µg/mL (≈ 0.0776 µM) | 0.5 µg/mL (≈ 0.616 µM) |

Results, then the compound that gave them:

| MIC [1] | MIC [2] | MIC [3] | MIC [4] | MIC [5] | MIC [6] | MIC [7] | MIC [8] | MIC [9] | MIC [10] | MIC [11] | Compound |
| --- | --- | --- | --- | --- | --- | --- | --- | --- | --- | --- | --- |
| 0.025 µg/mL (≈ 0.0297 µM) | 0.2 µg/mL (≈ 0.237 µM) | 2 µg/mL (≈ 2.37 µM) | 100 µg/mL (≈ 119 µM) | 0.024 µg/mL (≈ 0.0285 µM) | 8 µg/mL (≈ 9.49 µM) | 0.024 µg/mL (≈ 0.0285 µM) | 0.013 µg/mL (≈ 0.0154 µM) | – | – | – | CC[C@H]1OC(=O)[C@@](C)(F)C(=O)[C@H](C)[C@@H](O[C@@H]2O[C@H](C)C[C@H](N(C)C)[C@H]2O)[C@@](C)(OC)C[C@@H](C)C(=O)[C@H](C)[C@H]2N(CCCCn3cnc(-c4cccnc4)c3)C(=O)N(C)[C@]12C |
| 0.063 µg/mL (≈ 0.0787 µM) | 0.25 µg/mL (≈ 0.312 µM) | – | – | 0.063 µg/mL (≈ 0.0787 µM) | 2 µg/mL (≈ 2.5 µM) | – | 0.063 µg/mL (≈ 0.0787 µM) | 64 µg/mL (≈ 79.9 µM) | 0.063 µg/mL (≈ 0.0787 µM) | 0.5 µg/mL (≈ 0.624 µM) | CC[C@H]1OC(=O)[C@@](C)(F)C(=O)[C@H](C)[C@@H](O[C@@H]2O[C@H](C)C[C@H](N(C)C)[C@H]2O)[C@@](C)(OC)C[C@@H](C)C(=O)[C@H](C)[C@H]2N(C/C=C/Cn3cnc4cccnc43)C(=O)N[C@]12C |
| 0.05 µg/mL (≈ 0.0575 µM) | 0.39 µg/mL (≈ 0.449 µM) | 0.5 µg/mL (≈ 0.575 µM) | 100 µg/mL (≈ 115 µM) | 0.012 µg/mL (≈ 0.0138 µM) | 64 µg/mL (≈ 73.6 µM) | 0.049 µg/mL (≈ 0.0564 µM) | 0.025 µg/mL (≈ 0.0288 µM) | – | – | – | C=CCN1C(=O)N(CCCCn2cnc(-c3cccnc3)c2)[C@@H]2[C@@H](C)C(=O)[C@H](C)C[C@](C)(OC)[C@H](O[C@@H]3O[C@H](C)C[C@H](N(C)C)[C@H]3O)[C@@H](C)C(=O)[C@](C)(F)C(=O)O[C@H](CC)[C@]21C |
| 0.063 µg/mL (≈ 0.0779 µM) | 4 µg/mL (≈ 4.94 µM) | – | – | 0.063 µg/mL (≈ 0.0779 µM) | 32 µg/mL (≈ 39.6 µM) | – | 0.063 µg/mL (≈ 0.0779 µM) | 64 µg/mL (≈ 79.1 µM) | 0.25 µg/mL (≈ 0.309 µM) | 2 µg/mL (≈ 2.47 µM) | CC[C@H]1OC(=O)[C@H](C)C(=O)[C@H](C)[C@@H](O[C@@H]2O[C@H](C)C[C@H](N(C)C)[C@H]2O)[C@@](C)(OC)C[C@@H](C)C(=O)[C@H](C)[C@H]2N(C/C=C/Cn3cnc(-c4cccnc4)c3)C(=O)N[C@]12C |
| 0.049 µg/mL (≈ 0.0604 µM) | 6.3 µg/mL (≈ 7.77 µM) | 8 µg/mL (≈ 9.86 µM) | 100 µg/mL (≈ 123 µM) | 0.024 µg/mL (≈ 0.0296 µM) | 32 µg/mL (≈ 39.5 µM) | 0.039 µg/mL (≈ 0.0481 µM) | 0.024 µg/mL (≈ 0.0296 µM) | – | – | – | CC[C@H]1OC(=O)[C@H](C)C(=O)[C@H](C)[C@@H](O[C@@H]2O[C@H](C)C[C@H](N(C)C)[C@H]2O)[C@@](C)(OC)C[C@@H](C)C(=O)[C@H](C)[C@H]2N(CCCCn3cnc(-c4cccnc4)c3)C(=O)N[C@]12C |
| 0.012 µg/mL (≈ 0.0145 µM) | 0.78 µg/mL (≈ 0.941 µM) | 2 µg/mL (≈ 2.41 µM) | 100 µg/mL (≈ 121 µM) | 0.006 µg/mL (≈ 0.00724 µM) | 4 µg/mL (≈ 4.82 µM) | 0.049 µg/mL (≈ 0.0591 µM) | 0.006 µg/mL (≈ 0.00724 µM) | – | – | – | CC[C@H]1OC(=O)[C@@](C)(F)C(=O)[C@H](C)[C@@H](O[C@@H]2O[C@H](C)C[C@H](N(C)C)[C@H]2O)[C@@](C)(OC)C[C@@H](C)C(=O)[C@H](C)[C@H]2N(CCCCn3cnc(-c4cccnc4)c3)C(=O)N[C@]12C |
| 0.025 µg/mL (≈ 0.0292 µM) | 0.39 µg/mL (≈ 0.455 µM) | 0.25 µg/mL (≈ 0.292 µM) | 100 µg/mL (≈ 117 µM) | 0.024 µg/mL (≈ 0.028 µM) | 32 µg/mL (≈ 37.3 µM) | 0.049 µg/mL (≈ 0.0572 µM) | 0.013 µg/mL (≈ 0.0152 µM) | – | – | – | CC[C@H]1OC(=O)[C@@](C)(F)C(=O)[C@H](C)[C@@H](O[C@@H]2O[C@H](C)C[C@H](N(C)C)[C@H]2O)[C@@](C)(OC)C[C@@H](C)C(=O)[C@H](C)[C@H]2N(CCCCn3cnc(-c4cccnc4)c3)C(=O)N(CC)[C@]12C |
